Test results as given in publication PMC10064984, “Anti-cyclooxygenase, anti-glycation, and anti-skin aging effect of Dendrobium officinale flowers’ aqueous extract and its phytochemical validation in aging” (Frontiers in Immunology, 2023).
Several values for one entry are separate records, joined by “and”; a condition that tells them apart may be missing. Equal entries are not always repeated. Where two headings read alike, the source gives them in different places. One block for each compound: values may come before it.

Columns and labels:
[1] = ABTS·+ decolourisation capacity; type: biochemical; settings: for ABTS scavenging rate: 0.5mM series, replicate wells, listed as T15; for IC50: mean ± SD, n = 3
Outline: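 IC50 values were derived graphically from dose-inhibition curves, with % inhibition calculated versus a buffer-only (0.2 M phosphate, pH 7.4) control. Each sample (200 μl) reacted for 10 min with 100 μl ABTS·+ reagent pre-set to A729 0.8 ± 0.05, then absorbance at 729 nm was measured in triplicate.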

[2] = FRAP total antioxidant capacity; type: biochemical; settings: lower part of sheet (compound series);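 also: colourimetric FRAP kit assay read as absorbance in 96-well plates, values as mM FeSO4 via standard curve, EC1 being sample concentration matching 1.0 mmol/L FeSO4, Trolox positive control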
COX-2 = molecular target: T1, COX-2 (Homo sapiens, UniProt P35354); assay: Anti-COX-2 assay (COX-2 Inhibitor Screening Kit); type: biochemical
T1 construct: purchased Beyotime S0168
T1 sequence (P35354 18-604): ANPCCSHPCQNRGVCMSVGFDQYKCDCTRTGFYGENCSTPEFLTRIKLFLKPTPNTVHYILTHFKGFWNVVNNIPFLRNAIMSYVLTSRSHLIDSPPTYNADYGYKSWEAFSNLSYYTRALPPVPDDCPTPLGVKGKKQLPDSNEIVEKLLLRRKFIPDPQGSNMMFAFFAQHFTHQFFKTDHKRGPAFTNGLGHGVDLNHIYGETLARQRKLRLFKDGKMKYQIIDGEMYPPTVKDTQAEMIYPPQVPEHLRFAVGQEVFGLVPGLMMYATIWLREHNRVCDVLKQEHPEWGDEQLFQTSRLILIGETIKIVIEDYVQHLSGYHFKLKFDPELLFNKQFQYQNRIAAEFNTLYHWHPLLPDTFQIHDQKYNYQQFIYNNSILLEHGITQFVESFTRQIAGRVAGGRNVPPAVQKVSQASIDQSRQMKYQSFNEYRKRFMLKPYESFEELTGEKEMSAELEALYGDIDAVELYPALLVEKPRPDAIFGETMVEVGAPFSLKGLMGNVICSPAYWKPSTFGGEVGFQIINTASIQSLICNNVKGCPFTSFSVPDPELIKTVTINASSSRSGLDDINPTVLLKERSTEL

[3] = Fluorescent AGEs formation in a BSA-fructose/glucose system; type: biochemical; settings: for IC50: mean ± SD, n = 3, read-out: BSA-glycation IC50; for inhibition of fluorescent AGEs formation (BSA-抗糖化), single replicate: individual replicate; for inhibition of fluorescent AGEs formation (BSA-抗糖化), 平均 (mean): mean of 3 replicates
Outline: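 Fluorescent AGE inhibition was measured in triplicate, correcting sample and control fluorescence for BSA-free blanks. Glycation used BSA incubated with D-fructose and D-glucose, with samples dissolved in DMSO:water (1:4).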

[4] = Online UPLC-PDA-MS-ABTS·+ scavenging (postcolumn derivatisation); settings: within DOF extract
Experimental: Online identification of antioxidant components of DOF extract was performed using a UPLC system (Milford, MA, USA) consisting of a Waters photodiode array detector and a Waters postcolumn derivatisation system supplying fresh ABTS solution (UPLC-PDA-QDa-ABTS). […] The detection wavelengths were set at 280 and 734 nm, and the injection volume of the sample was 10 μl.
To detect radical scavengers, the UPLC system was coupled with a Waters pump, which supplied freshly prepared ABTS·+ solution into a reaction coil (15 m, 0.25 mm ID) with a flow rate of 0.2 ml/min at 37°C. Negative peaks were recorded based on a decrease of absorbance at 729 nm after the reaction of individual compounds with the ABTS·+ radical. For preliminary identification of compounds, a Waters Acquity QDa mass detector in negative ionisation mode was connected in series to PDA with the following parameters: electrospray ion source; cone voltage, 15 V; atomiser, N2; and scanning range, 100–800 m/z.

DPPH· scavenging = type: biochemical; settings: mean ± SD, n = 3

- IC50 [1]: 10.67 ± 0.03 µM
- COX-2 inhibition (in words) (COX-2): great COX-2 inhibition
- COX-2 inhibition (COX-2; 3.125 μM, single replicates, listed as T15, 3.125 µM): -5.79% and 0.13% and 6.24%
- COX-2 inhibition (COX-2; 6.25 μM, single replicates, listed as T15, 6.25 µM): 11.89% and 39.51% and 35.72%
- inhibition at 12.5 µM (COX-2; 12.5 μM, single replicates): 41.8%
- COX-2 inhibition (COX-2; 12.5 μM, single replicates, listed as T15, 12.5 µM): 53.29% and 49.38%
- inhibition at 25 µM (COX-2; 25 μM, single replicates): 67.1%
- COX-2 inhibition (COX-2; 25 μM, single replicates, listed as T15, 25 µM): 72.74% and 74.72%
- inhibition at 50 µM (COX-2; 50 μM, single replicates): 78.9%
- COX-2 inhibition (COX-2; 50 μM, single replicates, listed as T15, 50 µM): 78.06% and 79.70%
- inhibition at 100 µM (COX-2; 100 μM, single replicates): 77.2%
- COX-2 inhibition (COX-2; 100 μM, single replicates, listed as T15, 100 µM): 81.94% and 80.44%
- inhibition at 200 µM (COX-2; 200 μM, single replicates): 79.2%
- COX-2 inhibition (COX-2; 200 μM, single replicates, listed as T15, 200 µM): 82.29% and 79.96%
- IC50 [3]: 213 ± 10.4 µM
Structure (SMILES): O=c1c(O[C@@H]2O[C@H](CO)[C@@H](O)[C@H](O)[C@H]2O)c(-c2ccc(O)c(O)c2)oc2cc(O)cc(O)c12 [compound 25, Isoquercitrin]
- ABTS scavenging rate ([1]; concentration 7.8125 (unit not given)): 37.41% and 37.49% and 37.14%
- ABTS scavenging rate ([1]; concentration 15.625 (unit not given)): 63.25% and 62.99% and 62.91%
- ABTS scavenging rate ([1]; concentration 31.25 (unit not given)): 95.51% and 95.22% and 96.00%
- ABTS scavenging rate ([1]; concentration 62.5 (unit not given)): 99.23% and 99.50% and 99.53%
- ABTS scavenging rate ([1]; concentration 125 (unit not given)): 99.63% and 99.58% and 99.53%
- ABTS scavenging rate ([1]; concentration 250 (unit not given)): 99.04% and 98.96% and 98.89%
- ABTS scavenging rate ([1]; concentration 500 (unit not given)): 99.05% (2×) and 99.02%
- FRAP EC1 [2]: 520.2 ± 17.9 µM
- online ABTS radical scavenging (size of negative peaks at 734 nm) [4]: strongest ABTS radical scavengers

- IC50 (DPPH· scavenging): 24.7 ± 0.96 µM
- IC50 [1]: 28.4 ± 0.47 µM
- COX-2 inhibition (in words) (COX-2): great COX-2 inhibition
- inhibition at 3.125 µM (COX-2; 3.125 μM, single replicates): 24.6%
- COX-2 inhibition (COX-2; 3.125 μM, single replicates, listed as T11, 3.125 µM): 20.59% and 27.90%
- COX-2 inhibition (COX-2; 6.25 μM, single replicates, listed as T11, 6.25 µM): 14.74% and 29.06% and 32.72%
- inhibition at 12.5 µM (COX-2; 12.5 μM, single replicates): 58.4%
- COX-2 inhibition (COX-2; 12.5 μM, single replicates, listed as T11, 12.5 µM): 54.43% and 66.15%
- inhibition at 25 µM (COX-2; 25 μM, single replicates): 71.8%
- COX-2 inhibition (COX-2; 25 μM, single replicates, listed as T11, 25 µM): 72.43% and 76.32%
- inhibition at 50 µM (COX-2; 50 μM, single replicates): 73.1%
- COX-2 inhibition (COX-2; 50 μM, single replicates, listed as T11, 50 µM): 74.00% and 78.80%
- inhibition at 100 µM (COX-2; 100 μM, single replicates): 77.6%
- COX-2 inhibition (COX-2; 100 μM, single replicates, listed as T11, 100 µM): 75.00% and 79.64%
- inhibition at 200 µM (COX-2; 200 μM, single replicates): 75.5%
- COX-2 inhibition (COX-2; 200 μM, single replicates, listed as T11, 200 µM): 78.98% and 87.56%
- IC50 (COX-2; mean ± SD, n = 3, nd, not detected, read-out: COX-2 IC50): 12.5 ± 2.9 µM
- IC50 (COX-2; supplement sheet COX, read-out: COX-2 IC50, single replicate): 13.5 µM and 9.23 µM and 14.8 µM
- IC50 [3]: 288 ± 17.9 µM
Structure (SMILES): O=C(O)CC(=O)OCC1OC(Oc2c(-c3ccc(O)c(O)c3)oc3cc(O)cc(O)c3c2=O)C(O)C(O)C1O (stereo not drawn) [compound 27, Quercetin 3-O-(6″-malonyl-glucoside)]
- FRAP EC1 [2]: 826.7 ± 98.5 µM
- inhibition of fluorescent AGEs formation (BSA-抗糖化), single replicate ([3]; 15.625 µM, listed as T11, 15.625 µM): 10.51% and 15.35% and 23.11%
- inhibition of fluorescent AGEs formation (BSA-抗糖化), 平均 (mean) ([3]; 15.625 µM): 16.32%
- inhibition of fluorescent AGEs formation (BSA-抗糖化), single replicate ([3]; 31.25 µM, listed as T11, 31.25 µM): 5.08% and 5.86% and 10.67%
- inhibition of fluorescent AGEs formation (BSA-抗糖化), 平均 (mean) ([3]; 31.25 µM): 7.20%
- inhibition of fluorescent AGEs formation (BSA-抗糖化), single replicate ([3]; 62.5 µM, listed as T11, 62.5 µM): 17.13% and 15.89% and 16.80%
- inhibition of fluorescent AGEs formation (BSA-抗糖化), 平均 (mean) ([3]; 62.5 µM): 16.61%
- inhibition of fluorescent AGEs formation (BSA-抗糖化), single replicate ([3]; 125 µM, listed as T11, 125 µM): 26.98% and 29.78% and 30.07%
- inhibition of fluorescent AGEs formation (BSA-抗糖化), 平均 (mean) ([3]; 125 µM): 28.94%
- inhibition of fluorescent AGEs formation (BSA-抗糖化), single replicate ([3]; 250 µM, listed as T11, 250 µM): 45.50% and 47.09% and 47.76%
- inhibition of fluorescent AGEs formation (BSA-抗糖化), 平均 (mean) ([3]; 250 µM): 46.78%
- inhibition of fluorescent AGEs formation (BSA-抗糖化), single replicate ([3]; 500 µM, listed as T11, 500 µM): 61.62% and 62.32% and 63.30%
- inhibition of fluorescent AGEs formation (BSA-抗糖化), 平均 (mean) ([3]; 500 µM): 62.41%
- inhibition of fluorescent AGEs formation (BSA-抗糖化), single replicate ([3]; 1000 µM, listed as T11, 1000 µM): 77.56% and 77.94% and 77.85%
- inhibition of fluorescent AGEs formation (BSA-抗糖化), 平均 (mean) ([3]; 1000 µM): 77.78%
- inhibition of fluorescent AGEs formation (BSA-抗糖化), single replicate ([3]; 2000 µM, listed as T11, 2000 µM): 88.53% and 88.63% and 88.83%
- inhibition of fluorescent AGEs formation (BSA-抗糖化), 平均 (mean) ([3]; 2000 µM): 88.66%
- inhibition of fluorescent AGEs formation (BSA-抗糖化), single replicate ([3]; 4000 µM (series head 'T9 4000µM', 2-fold dilutions), listed as T11): 94.35% and 94.74% and 94.79%
- inhibition of fluorescent AGEs formation (BSA-抗糖化), 平均 (mean) ([3]; 4000 µM): 94.62%
- online ABTS radical scavenging (size of negative peaks at 734 nm) [4]: strongest ABTS radical scavengers
